Laboratory results from PubChem BioAssay AID248 (DTP/NCI, 2004).
Inconclusive results and toxic doses are left out. No stated cut-off is given here; in the data, active means T/C of 150% or more; inactive means T/C below 125%.

System: L1210 leukemia ip in BDF1 mice, survival T/C
Assay: NCI In Vivo Anticancer Drug Screen. Data for tumor model L1210 Leukemia (intraperitoneal) in B6D2F1 (BDF1) mice
Conditions: endpoint: mean survival time, higher = longer survival
How it was run: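 Each compound was tested against a transplantable tumor grown in mice. The endpoint was survival, with treated animals benchmarked against vehicle controls as a simple ratio.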

[1] = dose: 100.0 mg/kg/injection, schedule: Q01DX001 (ip), vehicle: Klucel (hydroxypropylcellulose) (HPC)
[2] = dose: 200.0 mg/kg/injection, schedule: Q01DX001 (ip), vehicle: Klucel (hydroxypropylcellulose) (HPC)
[3] = dose: 400.0 mg/kg/injection, schedule: Q01DX001 (ip), vehicle: Klucel (hydroxypropylcellulose) (HPC)
[4] = dose: 12.5 mg/kg/injection, schedule: Q01DX009 (ip), vehicle: Klucel (hydroxypropylcellulose) (HPC)
[5] = dose: 25.0 mg/kg/injection, schedule: Q01DX009 (ip), vehicle: Klucel (hydroxypropylcellulose) (HPC)
[6] = dose: 50.0 mg/kg/injection, schedule: Q01DX009 (ip), vehicle: Klucel (hydroxypropylcellulose) (HPC)
[7] = dose: 100.0 mg/kg/injection, schedule: Q01DX009 (ip), vehicle: Klucel (hydroxypropylcellulose) (HPC)
[8] = dose: 100.0 mg/kg/injection, schedule: Q04DX003 (ip), vehicle: saline
[9] = dose: 200.0 mg/kg/injection, schedule: Q01DX009 (ip), vehicle: Klucel (hydroxypropylcellulose) (HPC)
[10] = dose: 200.0 mg/kg/injection, schedule: Q04DX003 (ip), vehicle: saline
[11] = dose: 400.0 mg/kg/injection, schedule: Q01DX009 (ip), vehicle: Klucel (hydroxypropylcellulose) (HPC)
[12] = dose: 400.0 mg/kg/injection, schedule: Q04DX003 (ip), vehicle: saline
[13] = dose: 100.0 mg/kg/injection, schedule: Q01DX001 (ip), vehicle: saline
[14] = dose: 200.0 mg/kg/injection, schedule: Q01DX001 (ip), vehicle: saline
[15] = dose: 400.0 mg/kg/injection, schedule: Q01DX001 (ip), vehicle: saline
[16] = dose: 100.0 mg/kg/injection, schedule: Q04DX002 (ip), vehicle: Klucel (hydroxypropylcellulose) (HPC)
[17] = dose: 200.0 mg/kg/injection, schedule: Q04DX002 (ip), vehicle: Klucel (hydroxypropylcellulose) (HPC)

Measured: T/C

CC(CCC(=O)O)([N+](=O)[O-])[N+](=O)[O-]
inactive: [1] 98 % of control | [2] 102 % of control | [3] 98 % of control

NC(=O)NN=C1CCCCC1
inactive: [4] 97 % of control | [5] 97 % of control | [6] 102 % of control | dose: 70.0 mg/kg/injection, schedule: Q01DX009 (ip), vehicle: Klucel (hydroxypropylcellulose) (HPC) 87 % of control

Cc1ccc(Cl)cc1NC(=O)c1ccc(Cl)cc1
inactive: [7] 99 % of control | [8] 114 % of control | [9] 89 % of control | [10] 97 % of control | [11] 93 % of control | [12] 119 % of control

COc1cccc(NC(=O)Nc2ccccc2OC)c1
inactive: [7] 106 % of control | dose: 100.0 mg/kg/injection, schedule: Q04DX003 (ip), vehicle: Klucel (hydroxypropylcellulose) (HPC) 100 % of control | [9] 108 % of control | dose: 200.0 mg/kg/injection, schedule: Q04DX003 (ip), vehicle: Klucel (hydroxypropylcellulose) (HPC) 97 % of control | [11] 103 % of control | dose: 400.0 mg/kg/injection, schedule: Q04DX003 (ip), vehicle: Klucel (hydroxypropylcellulose) (HPC) 100 % of control

O=C(O)CNc1ccc(S(=O)(=O)c2ccc(NCC(=O)O)cc2)cc1
inactive: [13] 102 % of control | [14] 102 % of control | [15] 98 % of control

CCCCCCCCCCCCCCCCCN
inactive: [4] 100 % of control | dose: 12.5 mg/kg/injection, schedule: Q04DX003 (ip), vehicle: Klucel (hydroxypropylcellulose) (HPC) 93 % of control | [5] 101 % of control | dose: 25.0 mg/kg/injection, schedule: Q04DX003 (ip), vehicle: Klucel (hydroxypropylcellulose) (HPC) 100 % of control | dose: 50.0 mg/kg/injection, schedule: Q04DX003 (ip), vehicle: Klucel (hydroxypropylcellulose) (HPC) 102 % of control

Nn1c(Cc2ccccc2)nnc1Cc1ccccc1
inactive: dose: 100.0 mg/kg/injection, schedule: Q04DX002 (ip), vehicle: saline with Tween-80 104 % of control | dose: 200.0 mg/kg/injection, schedule: Q04DX002 (ip), vehicle: saline with Tween-80 87 % of control | dose: 400.0 mg/kg/injection, schedule: Q04DX002 (ip), vehicle: saline with Tween-80 108 % of control

N#C/C(=C1C=C(Br)/C(=N\O)C=C\1Cl)c1cccc2ccccc12
inactive: dose: 100.0 mg/kg/injection, schedule: Q01DX009 (ip), vehicle: saline with Tween-80 98 % of control | dose: 100.0 mg/kg/injection, schedule: Q04DX003 (ip), vehicle: saline with Tween-80 95 % of control | dose: 200.0 mg/kg/injection, schedule: Q01DX009 (ip), vehicle: saline with Tween-80 93 % of control | dose: 200.0 mg/kg/injection, schedule: Q04DX003 (ip), vehicle: saline with Tween-80 90 % of control | dose: 400.0 mg/kg/injection, schedule: Q01DX009 (ip), vehicle: saline with Tween-80 94 % of control | dose: 400.0 mg/kg/injection, schedule: Q04DX003 (ip), vehicle: saline with Tween-80 104 % of control

COC(=O)c1cccc2c1ccc1ccccc12
inactive: dose: 37.5 mg/kg/injection, schedule: Q04DX003 (ip), vehicle: saline 92 % of control | [6] 111 % of control | dose: 75.0 mg/kg/injection, schedule: Q04DX003 (ip), vehicle: saline 94 % of control | [7] 105 % of control | dose: 150.0 mg/kg/injection, schedule: Q04DX003 (ip), vehicle: saline 89 % of control | [9] 96 % of control

O=C1CCCCC1c1cccc2ccccc12 (centres undefined)
inactive: dose: 100.0 mg/kg/injection, schedule: Q01DX001 (sc), vehicle: olive oil, sesame oil, peanut oil 97 % of control | dose: 200.0 mg/kg/injection, schedule: Q01DX001 (sc), vehicle: olive oil, sesame oil, peanut oil 104 % of control | dose: 400.0 mg/kg/injection, schedule: Q01DX001 (sc), vehicle: olive oil, sesame oil, peanut oil 106 % of control

NC(N)=N/N=C/Cc1ccccc1
inactive: dose: 62.5 mg/kg/injection, schedule: Q01DX Z (ip), vehicle: saline 94 % of control

O=C(OCC1OCOC1C1OCOC1COC(=O)c1ccccc1)c1ccccc1 (centres undefined)
inactive: [13] 96 % of control | [14] 94 % of control | [15] 88 % of control

NNC(=O)CNc1ccc(F)cc1
inactive: [16] 105 % of control | [17] 114 % of control

C1CC2OC2CCC2OC12 (centres undefined)
inactive: dose: 100.0 mg/kg/injection, schedule: Q01DX001 (ip), vehicle: other 95 % of control | dose: 200.0 mg/kg/injection, schedule: Q01DX001 (ip), vehicle: other 106 % of control | dose: 400.0 mg/kg/injection, schedule: Q01DX001 (ip), vehicle: other 101 % of control

O=C(COc1cc(Cl)c(Cl)cc1Cl)OC(=O)COc1cc(Cl)c(Cl)cc1Cl
inactive: [16] 107 % of control | [17] 96 % of control

Cc1cccc(NC(N)=O)c1
inactive: dose: 50.0 mg/kg/injection, schedule: Q01DX009 (ip), vehicle: saline 96 % of control | dose: 100.0 mg/kg/injection, schedule: Q01DX009 (ip), vehicle: saline 97 % of control | [8] 95 % of control | dose: 200.0 mg/kg/injection, schedule: Q01DX009 (ip), vehicle: saline 94 % of control | [10] 97 % of control | [12] 94 % of control

O=S(=O)(F)c1ccccc1C[P+](c1ccccc1)(c1ccccc1)c1ccccc1
inactive: dose: 1.56 mg/kg/injection, schedule: Q01DX009 (ip), vehicle: Klucel (hydroxypropylcellulose) (HPC) 110 % of control | dose: 3.12 mg/kg/injection, schedule: Q01DX009 (ip), vehicle: Klucel (hydroxypropylcellulose) (HPC) 118 % of control | dose: 6.25 mg/kg/injection, schedule: Q01DX009 (ip), vehicle: Klucel (hydroxypropylcellulose) (HPC) 117 % of control

Cc1ccc(S(=O)(=O)OC2COCOC2C2(OS(=O)(=O)c3ccc(C)cc3)COCOC2)cc1 (centres undefined)
inactive: [16] 101 % of control | [17] 101 % of control | dose: 400.0 mg/kg/injection, schedule: Q04DX002 (ip), vehicle: Klucel (hydroxypropylcellulose) (HPC) 104 % of control

COC(=O)c1cc2c(cc1N=Cc1ccccc1Cl)OCO2
inactive: dose: 75.0 mg/kg/injection, schedule: Q04DX003 (ip), vehicle: Klucel (hydroxypropylcellulose) (HPC) 101 % of control | [1] 97 % of control | dose: 150.0 mg/kg/injection, schedule: Q04DX003 (ip), vehicle: Klucel (hydroxypropylcellulose) (HPC) 98 % of control | [2] 95 % of control | dose: 300.0 mg/kg/injection, schedule: Q04DX003 (ip), vehicle: Klucel (hydroxypropylcellulose) (HPC) 97 % of control | [3] 95 % of control
